These results are taken from PubChem BioAssay (NCI).

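In this assay, cells in 96-well plates receive the compound at five concentrations for 48 hours. Endpoints are linearly interpolated between the surrounding concentrations. At the TGI there is no net growth.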 Bounds are passed on as bounds.

The test system of one assay is SK-OV-3 ovarian. The experiment in a line: NCI tumour cell line growth inhibition, 48 h.
On to `CCN(CC)CCCNc1nc(=O)[nH]c(C)c1C(=O)Nc1cccc2cc3ccccc3cc12`, for which the TGI was above 100 µM.

In the case of `COC12OC3(C4OC41)C(C(=O)O[C@H]3CO[Si](C)(C)C(C)(C)C)C2C(=O)Oc1ccccc1` (some centres undefined), the TGI was above 100 µM.

For `c1ccc([P+](Cc2ccc(C[P+](c3ccccc3)(c3ccccc3)c3ccccc3)cc2)(c2ccccc2)c2ccccc2)cc1`, the TGI is above 100 µM.

In turn, `O=C(Cc1ccccc1)NNc1nc(NNC(=O)c2ccncc2)nc(Nc2ccc([N+](=O)[O-])cc2)n1` registered a TGI above 10 µM.

For the molecule `CC(=O)CCCCC(=O)Nc1ccc(CC(NC(=O)OC(C)(C)C)C(=O)NCC(=O)OCc2ccccc2)cc1` (centres undefined), the TGI stood at 52.7 µM.

Molecule `N#CC12C(=O)N3C(=NC(c4ccccc4)NC3c3ccccc3)C1(C#N)C(c1ccccc1)NC1=C2CCC1` (centres undefined) came in with a TGI above 100 µM.

`O=C(/C=C/c1ccccc1)CCN1CCN(CCC(=O)/C=C/c2ccccc2)CC1`: the TGI is above 100 µM.

Consider `C[n+]1c2ccccc2c(C(=O)Nc2ccc(S(=O)(=O)Nc3ccnn3-c3ccccc3)cc2)c2ccccc21`, for which the TGI was above 100 µM.

Consider `N=c1oc2c(Cl)cc(Cl)cc2cc1C(=O)Nc1cccc2ccccc12`, for which the TGI is above 77.6 µM.

Another assay deals with SN12C renal. Briefly: NCI tumour cell line growth inhibition, 48 h.
`S=c1sc2c(s1)SCCCCSCCCCSc1sc(=S)sc1SCCCCSCCCCS2` gave a TGI above 100 µM.

Molecule `CCOC(=O)N/N=C(/OCC)c1ccccc1` displayed a TGI above 100 µM.

In turn, `COc1cccc(-c2c(C#N)c(N)nc3c2CCS(=O)(=O)c2ccc(C)cc2-3)c1` displayed a TGI above 100 µM.

`COC(=O)C(CC12CC3CC(CC(C3)C1)C2)NC(=O)C(N)CC(=O)O` (centres undefined) had a TGI above 100 µM.

In the case of `O=C1C(Cl)=C(OCCCCl)C(=O)c2c(O)ccc(O)c21`, the TGI was determined as 5.1 µM.

On to `CCN(CC)CCCNc1nc(=O)[nH]c(C)c1C(=O)Nc1cccc2cc3ccccc3cc12`, for which the TGI was above 100 µM.

As to `COC12OC3(C4OC41)C(C(=O)O[C@H]3CO[Si](C)(C)C(C)(C)C)C2C(=O)Oc1ccccc1` (some centres undefined), the TGI is above 100 µM.

Consider `c1ccc([P+](Cc2ccc(C[P+](c3ccccc3)(c3ccccc3)c3ccccc3)cc2)(c2ccccc2)c2ccccc2)cc1`, for which the TGI was above 100 µM.

Molecule `O=C(Cc1ccccc1)NNc1nc(NNC(=O)c2ccncc2)nc(Nc2ccc([N+](=O)[O-])cc2)n1` had a TGI above 10 µM.

`CC(=O)CCCCC(=O)Nc1ccc(CC(NC(=O)OC(C)(C)C)C(=O)NCC(=O)OCc2ccccc2)cc1` (centres undefined) came in with a TGI of 64.4 µM.

In turn, `C=CCOc1ccc(/C(N=Nc2ccc(Cl)cc2)=N/NC(=O)c2ccccc2)cc1OC` displayed a TGI above 100 µM.

`N#CC12C(=O)N3C(=NC(c4ccccc4)NC3c3ccccc3)C1(C#N)C(c1ccccc1)NC1=C2CCC1` (centres undefined) registered a TGI above 100 µM.

Molecule `O=C(/C=C/c1ccccc1)CCN1CCN(CCC(=O)/C=C/c2ccccc2)CC1` returned a TGI of 21.7 µM.

As to `C[n+]1c2ccccc2c(C(=O)Nc2ccc(S(=O)(=O)Nc3ccnn3-c3ccccc3)cc2)c2ccccc21`, the TGI was above 100 µM.

In turn, `N=c1oc2c(Cl)cc(Cl)cc2cc1C(=O)Nc1cccc2ccccc12` displayed a TGI of 12.8 µM.

In a further assay the test system is SNB-19 CNS. Briefly: NCI tumour cell line growth inhibition, 48 h.
`S=c1sc2c(s1)SCCCCSCCCCSc1sc(=S)sc1SCCCCSCCCCS2` registered a TGI above 100 µM.

`O=C1c2c(ccc3c2CCCC3)CC12Cc1ccc3c(c1C2=O)CCCC3` displayed a TGI above 100 µM.

In turn, `CCOC(=O)N/N=C(/OCC)c1ccccc1` returned a TGI above 100 µM.

With `COc1cccc(-c2c(C#N)c(N)nc3c2CCS(=O)(=O)c2ccc(C)cc2-3)c1`, the TGI was above 100 µM.

On to `COC(=O)C(CC12CC3CC(CC(C3)C1)C2)NC(=O)C(N)CC(=O)O` (centres undefined), for which the TGI is above 100 µM.

The molecule `O=C1C(Cl)=C(OCCCCl)C(=O)c2c(O)ccc(O)c21` yielded a TGI of 32.5 µM.

Turning to `CCN(CC)CCCNc1nc(=O)[nH]c(C)c1C(=O)Nc1cccc2cc3ccccc3cc12`, the TGI was above 100 µM.

In the case of `COC12OC3(C4OC41)C(C(=O)O[C@H]3CO[Si](C)(C)C(C)(C)C)C2C(=O)Oc1ccccc1` (some centres undefined), the TGI is above 100 µM.

For the molecule `c1ccc([P+](Cc2ccc(C[P+](c3ccccc3)(c3ccccc3)c3ccccc3)cc2)(c2ccccc2)c2ccccc2)cc1`, the TGI is above 100 µM.

As to `O=C(Cc1ccccc1)NNc1nc(NNC(=O)c2ccncc2)nc(Nc2ccc([N+](=O)[O-])cc2)n1`, the TGI was above 10 µM.

Take `CC(=O)CCCCC(=O)Nc1ccc(CC(NC(=O)OC(C)(C)C)C(=O)NCC(=O)OCc2ccccc2)cc1` (centres undefined): the TGI is 55 µM.

As for `C=CCOc1ccc(/C(N=Nc2ccc(Cl)cc2)=N/NC(=O)c2ccccc2)cc1OC`, the TGI was above 100 µM.

Regarding `N#CC12C(=O)N3C(=NC(c4ccccc4)NC3c3ccccc3)C1(C#N)C(c1ccccc1)NC1=C2CCC1` (centres undefined), the TGI was above 100 µM.

In the case of `O=C(/C=C/c1ccccc1)CCN1CCN(CCC(=O)/C=C/c2ccccc2)CC1`, the TGI worked out at 32.6 µM.

For the molecule `C[n+]1c2ccccc2c(C(=O)Nc2ccc(S(=O)(=O)Nc3ccnn3-c3ccccc3)cc2)c2ccccc21`, the TGI was above 100 µM.

Consider `N=c1oc2c(Cl)cc(Cl)cc2cc1C(=O)Nc1cccc2ccccc12`, for which the TGI is above 78.2 µM.

A further assay has as its system SR leukemia. Briefly: NCI tumour cell line growth inhibition, 48 h.
Molecule `S=c1sc2c(s1)SCCCCSCCCCSc1sc(=S)sc1SCCCCSCCCCS2` had a TGI above 100 µM.

The molecule `O=C1c2c(ccc3c2CCCC3)CC12Cc1ccc3c(c1C2=O)CCCC3` showed a TGI above 100 µM.

Regarding `CCOC(=O)N/N=C(/OCC)c1ccccc1`, the TGI is above 100 µM.

Molecule `COc1cccc(-c2c(C#N)c(N)nc3c2CCS(=O)(=O)c2ccc(C)cc2-3)c1` had a TGI above 100 µM.

`COC(=O)C(CC12CC3CC(CC(C3)C1)C2)NC(=O)C(N)CC(=O)O` (centres undefined): the TGI was above 100 µM.

In the case of `O=C1C(Cl)=C(OCCCCl)C(=O)c2c(O)ccc(O)c21`, the TGI turned out to be 1.2 µM.

Turning to `COC12OC3(C4OC41)C(C(=O)O[C@H]3CO[Si](C)(C)C(C)(C)C)C2C(=O)Oc1ccccc1` (some centres undefined), the TGI is above 100 µM.

Molecule `c1ccc([P+](Cc2ccc(C[P+](c3ccccc3)(c3ccccc3)c3ccccc3)cc2)(c2ccccc2)c2ccccc2)cc1` yielded a TGI above 100 µM.

On to `O=C(Cc1ccccc1)NNc1nc(NNC(=O)c2ccncc2)nc(Nc2ccc([N+](=O)[O-])cc2)n1`, for which the TGI was above 10 µM.

In the case of `CC(=O)CCCCC(=O)Nc1ccc(CC(NC(=O)OC(C)(C)C)C(=O)NCC(=O)OCc2ccccc2)cc1` (centres undefined), the TGI is 56.9 µM.

`C=CCOc1ccc(/C(N=Nc2ccc(Cl)cc2)=N/NC(=O)c2ccccc2)cc1OC` had a TGI above 100 µM.

Turning to `C[n+]1c2ccccc2c(C(=O)Nc2ccc(S(=O)(=O)Nc3ccnn3-c3ccccc3)cc2)c2ccccc21`, the TGI was above 100 µM.

In the case of `N=c1oc2c(Cl)cc(Cl)cc2cc1C(=O)Nc1cccc2ccccc12`, the TGI was above 21.1 µM.

The next assay has as its system T-47D breast. The experiment in a line: NCI tumour cell line growth inhibition, 48 h.
`S=c1sc2c(s1)SCCCCSCCCCSc1sc(=S)sc1SCCCCSCCCCS2` yielded a TGI above 100 µM.

`O=C1c2c(ccc3c2CCCC3)CC12Cc1ccc3c(c1C2=O)CCCC3`: the TGI was above 100 µM.

`CCOC(=O)N/N=C(/OCC)c1ccccc1` returned a TGI above 100 µM.

`COc1cccc(-c2c(C#N)c(N)nc3c2CCS(=O)(=O)c2ccc(C)cc2-3)c1` showed a TGI above 100 µM.

`COC(=O)C(CC12CC3CC(CC(C3)C1)C2)NC(=O)C(N)CC(=O)O` (centres undefined): the TGI is above 100 µM.

In turn, `O=C1C(Cl)=C(OCCCCl)C(=O)c2c(O)ccc(O)c21` yielded a TGI of 6.43 µM.

`CCN(CC)CCCNc1nc(=O)[nH]c(C)c1C(=O)Nc1cccc2cc3ccccc3cc12` gave a TGI above 100 µM.

In the case of `COC12OC3(C4OC41)C(C(=O)O[C@H]3CO[Si](C)(C)C(C)(C)C)C2C(=O)Oc1ccccc1` (some centres undefined), the TGI was above 100 µM.

`c1ccc([P+](Cc2ccc(C[P+](c3ccccc3)(c3ccccc3)c3ccccc3)cc2)(c2ccccc2)c2ccccc2)cc1` registered a TGI above 100 µM.

Take `O=C(Cc1ccccc1)NNc1nc(NNC(=O)c2ccncc2)nc(Nc2ccc([N+](=O)[O-])cc2)n1`: the TGI is above 10 µM.

Take `CC(=O)CCCCC(=O)Nc1ccc(CC(NC(=O)OC(C)(C)C)C(=O)NCC(=O)OCc2ccccc2)cc1` (centres undefined): the TGI amounted to 42.6 µM.

Consider `C=CCOc1ccc(/C(N=Nc2ccc(Cl)cc2)=N/NC(=O)c2ccccc2)cc1OC`, for which the TGI worked out at 61.6 µM.

Take `N#CC12C(=O)N3C(=NC(c4ccccc4)NC3c3ccccc3)C1(C#N)C(c1ccccc1)NC1=C2CCC1` (centres undefined): the TGI is above 100 µM.

Molecule `O=C(/C=C/c1ccccc1)CCN1CCN(CCC(=O)/C=C/c2ccccc2)CC1` had a TGI of 31.2 µM.

With `C[n+]1c2ccccc2c(C(=O)Nc2ccc(S(=O)(=O)Nc3ccnn3-c3ccccc3)cc2)c2ccccc21`, the TGI was above 100 µM.

In turn, `N=c1oc2c(Cl)cc(Cl)cc2cc1C(=O)Nc1cccc2ccccc12` registered a TGI of 25.2 µM.
